{"source": "patent US20110178092A1", "about": "“HIV-1 Protease Inhibitors” (priority 2005, published 2011)", "assay_type_in_all_cases": "biochemical", "key": {"[1]": {"target": "T1, wild type HIV-1 protease (Q7K) (Human immunodeficiency virus type 1 group M subtype B, UniProt P04585, Q495K)", "T1 construct": "Wide type HIV-1 protease (Q7K)", "test": "FRET HIV-1 protease inhibition assay, wild type", "settings": "for fold higher Ki than the corresponding inhibitor with isobutyl group at P1': cyclopropylmethyl at P1' vs isobutyl analog, wild type; for Ki: wild type HIV-1 protease (Q7K), FRET, in triplicate, read-out: Ki", "description": "Biological Evaluation of Selected Compounds of the Invention. HIV protease inhibitor activities were determined by fluorescence resonance energy transfer (FRET) method. […] Inhibitor binding dissociation constant (Ki value) was obtained by nonlinear regression fitting to the plot of initial velocity as a function of inhibitor concentration based on Morrison equation.\n(§1) The energy transfer donor (EDANS) and acceptor (DABCYL) were labeled at its two ends respectively to perform FRET. Fluorescence measurements were carried out on PTI fluorescence spectrophotometer (Photon Technology International) at 30° C. Excitation and emission wavelengths were set at 340 nm and 490 nm, respectively. Each reaction was recorded for about 10 min. Wide type HIV-1 protease (Q7K) and its MDR mutants M1 (L10I, G48V, I54V, L63P, V82A), M2 (D30N, L63P, N88D), and M3 (L10I, L63P, A71V, G73S, I84V, L90M) were desalted through PD-10 columns (Amersham Biosciences). Sodium Acetate (20 mM, pH 5) was used as elution buffer. Apparent protease concentrations were around 50 nM estimated by UV spectrophotometer (Shimadzu) at 280 nm. All inhibitors were dissolved in DMSO and diluted to appropriate concentrations. Protease (2 μL) and inhibitor (2 μL) or DMSO were mixed and incubated for 20-30 min at room temperature before initialing substrate cleavage reaction. Throughout this work, 150 μL of 1 μM substrate was used. Substrate buffer is composite of 0.1 M sodium acetate, 1 M sodium chloride, 1 mM ethylenediaminetetraacetic acid (EDTA), 1 mM dithiothreitol (DTT), 2% dimethylsulfoxide (DMSO) and 1 mg/mL bovine serum albumin (BSA) with an adjusted pH 4.7. Inhibitor binding dissociation constant (Ki) was obtained by nonlinear regression fitting (GraFit 5, Erithacus software) to the plot of initial velocity as a function of inhibitor concentrations based on Morrison equation."}, "[2]": {"target": "HIV-1 protease MDR mutant M3 (L10I, L63P, A71V, G73S, I84V, L90M) (Human immunodeficiency virus type 1 group M subtype B, UniProt P04585, A559V/G561S/I572V/L498I/L551P/L578M/Q495K)", "settings": "qualitative statement", "source_text": "(§2) The mutant variants were selected by examining the Stanford HIV-1 Drug Resistance Database (http://hivdb.stanford.edu) of HIV-1 infected-patient sequences of viral isolates. […] (Wu, T. D. et al. J. Virol. 2003, 77, 4836-4847.) These MDR mutant variants are L10I, G48V, I54V, L63P, V82A (M1), D30N, L63P, N88D (M2), and L10I, L63P, A71V, G73S, I84V, L90M (M3).\nas §1"}, "[3]": {"target": "HIV-1 protease MDR mutant M2 (D30N, L63P, N88D) (Human immunodeficiency virus type 1 group M subtype B, UniProt P04585, D518N/L551P/N576D/Q495K)", "settings": "qualitative statement", "source_text": "as §2, §1"}, "[4]": {"target": "HIV-1 protease MDR mutant M1 (L10I, G48V, I54V, L63P, V82A) (Human immunodeficiency virus type 1 group M subtype B, UniProt P04585, G536V/I542V/L498I/L551P/Q495K/V570A)", "settings": "qualitative statement", "source_text": "as §2, §1"}}, "data": [{"smiles": "COc1cccc(S(=O)(=O)N(CC2CC2)C[C@@H](O)[C@H](Cc2ccccc2)NC(=O)[C@@H]2CN(c3cccc(F)c3)C(=O)O2)c1", "note": "[36b, (5S)—N-[(1S,2R)-1-Benzyl-3-[(cyclopropylmethyl)[(3-methoxyphenyl)sulfonyl]amino]-2-hydroxypropyl]-3-(3-fluorophenyl)-2-oxo-oxazolidine-S-carboxamide]", "values": [{"measurement": "fold higher Ki than the corresponding inhibitor with isobutyl group at P1'", "setting": "[1]", "result": "about 3 fold"}, {"measurement": "Ki", "setting": "[1]", "result": 0.257, "unit": "nM"}]}, {"smiles": "COc1cccc(S(=O)(=O)N(CC2CC2)C[C@@H](O)[C@H](Cc2ccccc2)NC(=O)[C@@H]2CN(c3ccc(F)c(F)c3)C(=O)O2)c1", "note": "[36c, (5S)—N-[(1S,2R)-1-Benzyl-3-[(cyclopropylmethyl)[(3-methoxyphenyl)sulfonyl]amino]-2-hydroxypropyl]-3-(3,4-difluorophenyl)-2-oxo-oxazolidine-S-carboxamide]", "values": [{"measurement": "fold higher Ki than the corresponding inhibitor with isobutyl group at P1'", "setting": "[1]", "result": "~9", "unit": "fold"}, {"measurement": "Ki", "setting": "[1]", "result": 0.58, "unit": "nM"}]}, {"smiles": "COc1cccc(S(=O)(=O)N(CC2CC2)C[C@@H](O)[C@H](Cc2ccccc2)NC(=O)[C@@H]2CN(c3ccc(C(C)=O)cc3)C(=O)O2)c1", "note": "[36f, (5S)-3-(4-Acetylphenyl)-N-[(1S,2R)-1-Benzyl-3-[(cyclopropylmethyl)[(3-methoxy-phenyl)sulfonyl]amino]-2-hydroxypropyl]-2-oxo-oxazolidine-S-carboxamide]", "values": [{"measurement": "fold higher Ki than the corresponding inhibitor with isobutyl group at P1'", "setting": "[1]", "result": "~200", "unit": "fold"}, {"measurement": "Ki", "setting": "[1]", "result": 0.08, "unit": "nM"}]}, {"smiles": "Cc1cccc(C)c1OCC(=O)N[C@@H](Cc1ccccc1)[C@@H](O)C[C@H](Cc1ccccc1)NC(=O)[C@H](C(C)C)N1CCCNC1=O", "note": "[LPV, lopinavir]", "values": [{"measurement": "activity against M3 mutant relative to wild type (in words)", "setting": "[2]", "result": "significantly loses activity"}, {"measurement": "activity against M2 mutant relative to wild type (in words)", "setting": "[3]", "result": "retains high affinity"}, {"measurement": "activity against M1 mutant relative to wild type (in words)", "setting": "[4]", "result": "significantly loses activity"}]}, {"smiles": "CC(C)CN(C[C@@H](O)[C@H](Cc1ccccc1)NC(=O)O[C@H]1CCOC1)S(=O)(=O)c1ccc(N)cc1", "note": "[amprenavir, reference compound]", "values": [{"measurement": "inhibitory activity against wild type HIV-1 protease (in words)", "setting": "[1]; wild type HIV-1 protease, qualitative statement", "result": "Ki value for wild type is also relatively high"}]}]}
